Key:
[1] = tested on: various lung cancer cell lines; assay: Long term proliferation (LTP) assay in various cancer cell lines; assay type: cell-based
Experimental: The following cell lines were evaluated in an adherent cell line proliferation assay described herein: A549, HCC15, COV434, NCIH460, NCIH358, NCIH358-SMARCA2, NCIH358-SMARCA, NCIH1703, NCIH838, NCIH322, NCIH2122, NCIH2023, NCIH1355, NCIH1693, NCIH441, NCIH2030, NCIH1573, NCIH1373, NCIH1650, and NCIH1693. Plating densities for each cell line were determined based on growth curves (measured by ATP viability) and density over a 7 day timecourse. On the day before compound treatment, cells were plated in either 96-well plates in triplicate (for the day 0-7 timecourse) or 6-well plates (for replating on day 7 for the remainder of the timecourse). On Day 0, cells were either untreated, DMSO-treated, or treated with increasing concentrations of Compound 139 up to 10 μM. Plates were read on Day 0, Day 4, and Day 7 using a luminescent cell viability assay, with compound/media being replenished on Day 4. On Day 7, the 6-well plates were trypsinized, centrifuged, and resuspended in fresh media for counting by Vi-Cell. Cells from each treatment were replated at the original density in 96-well plates in triplicate. Cells were allowed to adhere to the plate overnight, and cells were treated as on Day 0. On Day 7, 11 and 14, plates were read using a luminescent cell viability assay, with compound/media being replenished on Day 11. Averages of triplicates were used to plot proliferation over the timecourse, and calculate IC50 values.
The following cell lines were evaluated in an adherent cell line proliferation assay described herein: NCIH522, CORL23, NCIH1693, NCIH1838, HCC1588, NCIH1435, NCIH2085, HCC827, NCIH1792, NCIH596, NCIH1568, NCIH1793, NCIH2126, CORL105, NCIH1573, NCIH1693, NCIH1395, HCC44, NCIH2126, NCIH520, NCIH1373, NCIH2172, NCIH23, HCT116, […], NCIH2347, NCIH2110, NCIH647, NCIH1437, AGS, KMS11, BT549, HUPT4, NCIH1048, TE10, and TE14. Cell densities were determined by growth curve as per protocol 1. For the proliferation assay, on Day 0, cells were either untreated, DMSO-treated, or treated with increasing concentrations of Compound 139 up to 10 μM. Plates were read on Day 0, Day 4, and Day 7 using luminescent cell viability assay. On Day 7, the 6-well plates were trypsinized, centrifuged, and resuspended in fresh media for counting by Vi-Cell. Cells from each treatment were replated at the original density in 96-well plates in triplicate. Cells were treated with compound as on Day 0. On Day 7, 11 and 14, plates were read using a luminescent cell viability assay. Averages of triplicates were used to plot proliferation over the timecourse, and calculate IC50 values.

[2] = tested on: H358 cells; assay: High-throughput proliferation (HTP) assay for H358 cells (CellTiter-Glo, 7 days); assay type: cell-based; conditions: Homo sapiens, NCI-H358, 168 h, read-out: H358 SMARCA2 IC50
Summary of the method: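 Cells were plated at 1,000 cells/well in RPMI 1640 + 10% HI-FBS + 1% pen/strep on pre-dispensed compound and incubated 7 days at 37 °C, 5% CO2. Viability was read as ATP luminescence with CellTiter-Glo after 30 min at RT. DMSO served as 0% and 10 µM doxorubicin as 100% inhibition for EC50/IC50.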

[3] = tested on: A549 cells; assay: Long term proliferation (LTP) assay, day 15 IC50 in A549 cells; assay type: cell-based; conditions: Homo sapiens, 360 h
[4] = molecular target: FL-SMARCA4 (Homo sapiens, UniProt P51532); assay: SMARCA4 ATPase activity assay (ADP-Glo, chicken mononucleosome substrate); conditions: FL-SMARCA4 IC50, Table 3.2; ATPase assay, enzyme 5 nM, ATP 250 uM, chicken mononucleosome 10 nM, 30 min preincubation
Chain of FL-SMARCA4 (P51532 whole entry): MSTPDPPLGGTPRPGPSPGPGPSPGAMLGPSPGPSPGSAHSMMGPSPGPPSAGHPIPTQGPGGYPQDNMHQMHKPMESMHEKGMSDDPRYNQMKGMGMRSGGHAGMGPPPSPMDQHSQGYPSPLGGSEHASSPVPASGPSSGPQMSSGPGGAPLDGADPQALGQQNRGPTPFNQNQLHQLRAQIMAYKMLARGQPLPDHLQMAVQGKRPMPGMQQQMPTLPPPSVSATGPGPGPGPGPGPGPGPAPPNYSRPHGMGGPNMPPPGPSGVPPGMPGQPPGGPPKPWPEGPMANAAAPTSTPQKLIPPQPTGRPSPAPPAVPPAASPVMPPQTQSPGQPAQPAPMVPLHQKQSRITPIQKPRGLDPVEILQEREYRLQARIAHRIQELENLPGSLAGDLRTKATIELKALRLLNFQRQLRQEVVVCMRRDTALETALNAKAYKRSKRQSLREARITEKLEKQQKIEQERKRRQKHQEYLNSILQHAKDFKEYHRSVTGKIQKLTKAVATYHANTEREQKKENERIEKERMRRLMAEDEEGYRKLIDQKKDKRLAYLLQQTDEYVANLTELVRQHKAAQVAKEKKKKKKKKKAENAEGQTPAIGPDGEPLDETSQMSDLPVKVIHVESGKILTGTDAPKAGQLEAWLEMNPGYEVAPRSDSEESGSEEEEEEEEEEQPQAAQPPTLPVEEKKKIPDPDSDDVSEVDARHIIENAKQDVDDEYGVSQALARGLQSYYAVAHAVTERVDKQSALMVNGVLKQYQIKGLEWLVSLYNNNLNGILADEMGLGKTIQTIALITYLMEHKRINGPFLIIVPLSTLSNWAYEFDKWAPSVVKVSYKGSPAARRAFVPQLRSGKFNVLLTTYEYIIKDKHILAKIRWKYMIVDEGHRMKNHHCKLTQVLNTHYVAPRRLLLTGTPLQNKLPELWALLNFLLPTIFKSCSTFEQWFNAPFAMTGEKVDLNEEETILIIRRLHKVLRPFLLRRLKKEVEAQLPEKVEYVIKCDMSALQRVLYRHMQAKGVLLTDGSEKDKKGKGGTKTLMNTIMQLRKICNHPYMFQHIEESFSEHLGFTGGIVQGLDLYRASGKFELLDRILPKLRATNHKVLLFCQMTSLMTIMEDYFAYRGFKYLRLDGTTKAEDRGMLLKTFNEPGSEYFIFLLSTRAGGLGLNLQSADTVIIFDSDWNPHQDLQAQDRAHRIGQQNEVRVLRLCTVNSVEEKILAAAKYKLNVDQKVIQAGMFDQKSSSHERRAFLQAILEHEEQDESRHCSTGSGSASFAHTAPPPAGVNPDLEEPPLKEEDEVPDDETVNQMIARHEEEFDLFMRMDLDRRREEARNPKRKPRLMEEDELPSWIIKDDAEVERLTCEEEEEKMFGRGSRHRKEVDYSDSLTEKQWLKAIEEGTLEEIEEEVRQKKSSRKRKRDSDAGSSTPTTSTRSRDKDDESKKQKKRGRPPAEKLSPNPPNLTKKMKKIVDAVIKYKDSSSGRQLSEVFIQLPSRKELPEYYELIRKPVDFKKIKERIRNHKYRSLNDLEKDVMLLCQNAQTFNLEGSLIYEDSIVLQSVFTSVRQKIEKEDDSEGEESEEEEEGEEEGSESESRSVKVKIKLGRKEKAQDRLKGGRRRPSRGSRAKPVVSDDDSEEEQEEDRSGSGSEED
Experimental: Substrates. Chicken erythrocyte mononucleosomes were prepared from fresh chicken blood collected into anticoagulant and filtered through cheesecloth. The filtered chicken blood was diluted in buffer A (10 mM Tris-HCl, pH 7.4, 10 mM NaCl, 3 mM MgCl2) and centrifuged at 500 g for 15 minutes to collect the erythrocytes. Erythrocyte nuclei were harvested by resuspending the pellets in buffer A containing 0.3% NP-40 detergent. The mixture was stirred with a magnetic bar for 10 mins and centrifuged at 4000 g for 10 minutes. Resuspension, stirring and centrifugation was repeated twice more before the final nuclei pellet was resuspended in buffer A+0.3% NP-40 and stored at −80° C. until purification. For nucleosome purification, nuclei aliquots were rapidly thawed and washed five times with buffer B (10 mM Tris-HCl, pH 7.4, 1 mM CaCl2), 1 mM PMSF) and collected by centrifugation at 2800 g for 10 minutes. Pellets were resuspended in buffer B and treated with 100 U/mL micrococcal nuclease for 40 minutes at 37° C. The reaction was terminated by the addition of 2 mM EDTA and was centrifuged at 2800 g for 10 minutes. The nuclei were then lysed by resuspending the pellet in 1 mM EDTA and 1 mM PMSF and passing the mixture through a 22G needle 4 to 5 times. The solution was then centrifuged at 15,000 g for 20 minutes and the supernatant was collected. The remaining pellet was lysed through the syringe twice more and the supernatants were pooled after centrifugation. The pooled supernatants were further purified by size exclusion chromatography (GE Sephacryl S300 HR 50/100) in buffer C (10 mM HEPES, pH 7.5, 10 mM KCl, 1 mM EDTA, 1 mM PMSF, 10% glycerol). Fractions were analyzed by agarose gel electrophoresis and SDS-PAGE and fractions containing mononucleosomes were pooled and stored at −80° C.
The SMARCA2 or SMARCA4 ATPase assays were identical. The SMARCA2 or SMARCA4 ATPase assays were performed in a buffer consisting of 20 mM Bicine (pH 7.5), 10 mM KCl, 1 mM MgCl2, 1 mM TCEP, 0.005% BSG, and 0.002% Tween 20, prepared on the day of use. Compounds in 100% DMSO were 3-fold serially diluted to produce a 10 point curve for IC50 determination and 0.2 uL were transferred into polypropylene 384-well V-bottom plates (Greiner) using an Echo liquid handler (Labcyte). DMSO (0.2 uL) was added to Columns 11, 12, 23, 24, rows A-H for the maximum signal control and 0.2 uL doxorubicin, a known DNA intercalator, was added to columns 11, 12, 23, 24, rows I-P for the minimum signal control. The SMARCA2 or SMARCA4 enzyme (10 uL) was added to the compounds and allowed to incubate with the compounds for 30 min at room temperature. The SMARCA2 or SMARCA4 ATPase assay was initiated by the addition of 10 uL chicken mononucleosome and ATP mixture (final volume=20 uL). The final concentrations of the assay components were as follows: SMARCA2 or SMARCA4 was 5 nM, ATP was 250 uM, chicken mononucleosome was 10 nM, doxorubicin in the minimum signal control wells was 50 uM, and the DMSO concentration was 1%. 5 uL of the reaction mixture was transferred from the 384-well polypropylene plate to a white opaque polystyrene 384-well plate. At 60 minutes, the assays were terminated by the addition of 5 uL ADP-Glo™ Reagent (Promega). After 40 minutes, the luciferase reaction was initiated by the addition of 10 uL of Kinase Detection Reagent (Promega) and incubated for 1 hour. The ADP product generated from the SMARCA2 or SMARCA4 ATPase reaction was determined via luminescence intensity.

Which IC50 ([1]; COV644, Ovarian Cancer) does the source give for `O=C(Nc1cc(F)c(=O)n(CC(F)F)c1)c1cc(Cl)c(C(F)(F)F)s1` [Compound 298, 4-Chloro-N-(1-(2,2-difluoroethyl)-5-fluoro-6-oxo-1,6-dihydropyridin-3-yl)-5-(trifluoromethyl)thiophene-2-carboxamide] here?
The IC50 was 5.6 µM.

What about the IC50 ([1]; HCC15, HCC15, SMARCA4 protein Absent, Lung NSCLC squamous cell carcinoma) of the same compound?
Its IC50 is 0.569 µM.

What about the IC50 ([1]; Homo sapiens, A549, A549, SMARCA4 protein Absent, Lung NSCLC adenocarcinoma) of the same compound?
Its IC50 is 0.142 µM.

What about the IC50 ([1]; Homo sapiens, COR-L23, CORL23, SMARCA4 protein Present, Lung NSCLC large cell carcinoma) of the same compound?
Its IC50 is 1.4 µM.

What about the IC50 ([1]; Homo sapiens, COR-L105, CORL105, SMARCA4 protein Present, Lung NSCLC adenocarcinoma) of the same compound?
The IC50 was 0.715 µM.

And the IC50 ([1]; Homo sapiens, Calu-6, CALU6, SMARCA4 protein Present, Lung NSCLC undifferentiated carcinoma)?
Its IC50 is 1.4 µM.

And the IC50 ([1]; Homo sapiens, DLD-1, DLD1, SMARCA4 protein Present, Colon Cancer adenocarcinoma)?
The IC50 was 1.4 µM.

What about the IC50 ([1]; Homo sapiens, HCC44, HCC44, SMARCA4 protein Present, Lung NSCLC adenocarcinoma) of the same compound?
The IC50 was 3.3 µM.

What about the IC50 ([1]; Homo sapiens, HCT-116, HCT116, SMARCA4 protein Present, Colon Cancer) of the same compound?
Its IC50 is 0.836 µM.

What about the IC50 ([1]; Homo sapiens, HT-1376, HT1376, Bladder Cancer transitional cell carcinoma) of the same compound?
The IC50 was 0.385 µM.

And the IC50 ([1]; Homo sapiens, MIA PaCa-2, MIAPACA2, Pancreatic Cancer ductal carcinoma)?
The IC50 was 0.871 µM.

And the IC50 ([1]; Homo sapiens, NCI-H23, NCIH23, SMARCA4 protein Absent, Lung NSCLC non small cell carcinoma)?
Its IC50 is 0.891 µM.

What about the IC50 ([1]; Homo sapiens, NCI-H358, NCIH358, SMARCA4 protein Present, Lung NSCLC bronchioloalveolar adenocarcinoma) of the same compound?
Its IC50 is 10 µM.

And the IC50 ([1]; Homo sapiens, NCI-H358, NCIH358 SMARCA2, SMARCA4 protein Present, Lung NSCLC bronchioloalveolar adenocarcinoma)?
Its IC50 is 5.1 µM.

What about the IC50 ([1]; Homo sapiens, NCI-H358, NCIH358 SMARCA4, SMARCA4 protein Absent, Lung NSCLC bronchioloalveolar adenocarcinoma) of the same compound?
The IC50 was 0.312 µM.

What about the IC50 ([1]; Homo sapiens, NCI-H441, NCIH441, SMARCA4 protein Present, Lung NSCLC adenocarcinoma) of the same compound?
Its IC50 is 5 µM.

And the IC50 ([1]; Homo sapiens, NCI-H460, NCIH460, SMARCA4 protein Present, Lung NSCLC large cell carcinoma)?
The IC50 was 10 µM.

What about the IC50 ([1]; Homo sapiens, NCI-H522, NCIH522, SMARCA4 protein Absent, Lung NSCLC adenocarcinoma) of the same compound?
Its IC50 is 10 µM.

What about the IC50 ([1]; Homo sapiens, NCI-H596, NCIH596, Lung NSCLC mixed adenosquamous carcinoma) of the same compound?
The IC50 was 10 µM.

And the IC50 ([1]; Homo sapiens, NCI-H810, NCIH810, SMARCA4 protein Present, Lung NSCLC large cell carcinoma)?
The IC50 was 0.946 µM.

What about the IC50 ([1]; Homo sapiens, NCI-H1299, NCIH1299, Lung NSCLC non small cell carcinoma) of the same compound?
Its IC50 is 0.548 µM.

What about the IC50 ([1]; Homo sapiens, NCI-H1437, NCIH1437, SMARCA4 protein Present, Lung NSCLC adenocarcinoma) of the same compound?
Its IC50 is 1.4 µM.

What about the IC50 ([1]; Homo sapiens, NCI-H1563, NCIH1563, SMARCA4 protein Present, Lung NSCLC adenocarcinoma) of the same compound?
Its IC50 is 1.1 µM.

What about the IC50 ([1]; Homo sapiens, NCI-H1573, NCIH1573, SMARCA4 protein Absent, Lung NSCLC adenocarcinoma) of the same compound?
Its IC50 is 0.701 µM.

And the IC50 ([1]; Homo sapiens, NCI-H1693, NCIH1693, SMARCA4 protein Absent, Lung NSCLC adenocarcinoma)?
The IC50 was 0.202 µM.

What about the IC50 ([1]; Homo sapiens, NCI-H1975, NCIH1975, SMARCA4 protein Present, Lung NSCLC non small cell carcinoma) of the same compound?
The IC50 was 10 µM.

And the IC50 ([1]; Homo sapiens, NCI-H2030, NCIH2030, SMARCA4 protein Absent, Lung NSCLC non small cell carcinoma)?
The IC50 was 1.1 µM.

What about the IC50 ([1]; Homo sapiens, NCI-H2122, NCIH2122, SMARCA4 protein Present, Lung NSCLC adenocarcinoma) of the same compound?
The IC50 was 3.9 µM.

And the IC50 ([1]; Homo sapiens, PANC-1, PANC1, Pancreatic Cancer ductal carcinoma)?
Its IC50 is 0.223 µM.

What about the IC50 ([1]; Homo sapiens, SW900, SW900, SMARCA4 protein Present, Lung NSCLC squamous cell carcinoma) of the same compound?
Its IC50 is 10 µM.

And the IC50 ([1]; Hs766T, Pancreatic Cancer ductal carcinoma)?
The IC50 was 10 µM.

And the IC50 ([1]; NCI-H1568, NCIH1568, SMARCA4 protein Absent, Lung NSCLC adenocarcinoma)?
The IC50 was 0.509 µM.

What about the IC50 ([1]; OV7, Ovarian Cancer) of the same compound?
Its IC50 is 0.154 µM.

And the IC50 ([1]; RERFLCAI, SMARCA4 protein Absent, Lung NSCLC squamous cell carcinoma)?
The IC50 was 0.135 µM.

And the IC50 [2]?
Its IC50 is greater than 10 µM.

What about the IC50 [3] of the same compound?
Its IC50 is 0.142 µM.

What about the IC50 [4] of the same compound?
The IC50 was 0.165 µM.
